Assay results taken from patent US20160199392A1, “METHOD FOR INDIVIDUALIZED DRUG THERAPY” (Autotelic LLC, priority 2015, published 2016).
Marks after values point to notes of the source that are not given here.

Tests used:
[1] = system: Signs and Symptoms of Osteoarthritis; conditions: cited from earlier work
[2] = Combined plots / meta analysis of published pharmacokinetic data; type: in vivo, patients
Procedure: Accordingly, the dose proportionality may not be as is described by the package insert for Celebrex®. As a result of the failure to determine and pursue target PK ranges, in some instances patients receiving 100 mg patients may not get enough of the drug and the 200 mg patients may receive too much of the drug.
In other words, the most efficacious celecoxib dosage is highly individualized among the elderly. Unexpectedly, elderly here is defined as patients greater than >40 or >50, not the usually definition of elderly (age greater>65).
Based on the wide range of AUC values, some instances patients receiving 100 mg patients may not get enough of the drug and the 200 mg patients may receive too much of the drug (FIG. 2).

pain = conditions: 100 mg dose, for the duration of the six week study; cited from earlier work
[3] = Naproxen group, at 12 weeks, n = 198

| SMILES | Withdrawal due to treatment failure (%) ([1]; Naproxen group, 12 weeks, n = 198) | Patient global assessment condition improved (%) [1, 3] | Patient global assessment condition worsened (%) [1, 3] | Physician's global assessment condition improved (%) [1, 3] | Physician's global assessment condition worsened (%) [1, 3] | Mean +/− SEM Osteoarthritis Severity Index ([1]; Naproxen group, at 12 weeks, scale 0 to 24, negative change indicating improvement) | Mean +/− SEM WOMAC Osteoarthritis Index composite score ([1]; Naproxen group, at 12 weeks, scale 0 to 96, negative change indicating improvement) | variability of PK parameters (AUC) by age group ([2]; applicant's meta analysis, one dose AUC, elderly (>40 or >50) vs younger patients, FIG. 3) | variability of pharmacokinetics ([2]; combined plots of published pharmacokinetic data, FIG. 2, 100 mg and 200 mg doses) | side effects reported (pain) | side effects reported ([1]; 100 mg dose compared with 200 mg dose) |
| --- | --- | --- | --- | --- | --- | --- | --- | --- | --- | --- | --- |
| COc1ccc2cc([C@H](C)C(=O)O)ccc2c1 [Naproxen, naproxen] | 26‡ % | 29‡ % | 2% | 33‡ % | 1% | −3.1 +/− 0.30‡ | −11.9 +/− 1.29‡ | – | – | – | – |
| Cc1ccc(-c2cc(C(F)(F)F)nn2-c2ccc(S(N)(=O)=O)cc2)cc1 [celecoxib, Celecoxib] | – | – | – | – | – | – | – | higher variability than younger patients | unexpectedly high | fewer side effects | fewer side effects |
